In ChEMBL document CHEMBL6177950, “Discovery of potent and selective CDK2 inhibitors with high safety and favorable bioavailability for the treatment of cancer” (Eur J Med Chem, 2025):
Activity calls are given as the source filed them. The calls are words filed in the database; no cut-off is given here.

How the values were obtained:
OVCAR-3 [1] = assay: Antitumor activity against human OVCAR-3 cells xenografted in nude BALB/c mouse model assessed as tumor growth inhibition administered as po once daily for 21 days; type: functional, organism-based; conditions: dose 40-80 mg/kg, time 21.0 day
OVCAR-3 [2] = assay: Antitumor activity against human OVCAR-3 cells xenografted in nude BALB/c mouse assessed as suppression of tumor cell proliferation at 40 to 80 mg/kg, po administered once daily for 21 days by Ki67 staining based analysis; type: functional, organism-based; conditions: dose 40-80 mg/kg, time 21.0 day
OVCAR-3 [3] = assay: Induction of apoptosis in human OVCAR-3 cells assessed as early apoptotic cells at 1 uM incubated for 24 hrs by Annexin V-FITC/PI staining based flow cytometry analysis (reference value: 1.25%); type: functional
OVCAR-3 [4] = assay: Induction of cell cycle arrest in human OVCAR-3 cells assessed as accumulation of cells at G1 phase at 1 uM incubated for 24 hrs by flow cytometry analysis (reference value: 67.73%); type: functional
[5] = MRT (0 to infinity) in Sprague-Dawley rat at 2 mg/kg, iv by LC-MS/MS analysis; type: ADME, organism-based; conditions: in vivo
OVCAR-3 [6] = assay: Induction of apoptosis in human OVCAR-3 cells assessed as reduction in Bcl2 expression incubated for 24 hrs by Western blot analysis; type: functional, cell-based
OVCAR-3 [7] = assay: Induction of cell cycle arrest in human OVCAR-3 cells assessed as accumulation of cells at G2 phase at 1 uM incubated for 24 hrs by flow cytometry analysis (reference value: 21.77%); type: functional
[8] = Acute toxicity in ICR mouse assessed as increase in body weight at 1000 to 2500 mg/kg, po administered once and measured after 1 week; type: organism-based; conditions: in vivo, 168 h, dose 1000-2500 mg/kg, time 1 weeks
OVCAR-3 [9] = assay: Downregulation of proliferation-related signaling pathway gene expression in human OVCAR-3 cells by GSEA; type: functional, cell-based
OVCAR-3 [10] = assay: Antitumor activity against human OVCAR-3 cells xenografted in nude BALB/c mouse assessed as reduction in tumor cells at 40 to 80 mg/kg, po administered once daily for 21 days by H and E staining analysis; type: functional, organism-based; conditions: dose 40-80 mg/kg, time 21.0 day
OVCAR-3 [11] = assay: Induction of apoptosis in human OVCAR-3 cells incubated for 24 hrs by Annexin V-FITC/PI staining based flow cytometry analysis; type: functional, cell-based; conditions: dose 1-2 µM
OVCAR-3 [12] = assay: Antitumor activity against human OVCAR-3 cells xenografted in nude BALB/c mouse model assessed as tumor growth inhibition at 80 mg/kg, po administered once daily for 21 days; type: functional, organism-based; conditions: time 21.0 day
[13] = AUC (0 to infinity) in Sprague-Dawley rat at 20 mg/kg, po by LC-MS/MS analysis; type: ADME, organism-based; conditions: in vivo
[14] = biological target: Cyclin-dependent kinase 2/cyclin E1 (Homo sapiens, UniProt P24941); assay: Inhibition of CDK2/Cyclin E1 (unknown origin) pre-incubated for 10 mins followed by ATP/substrate addition and measured after 60 mins by ADP-Glo assay; type: protein-complex assay
OVCAR-3 [15] = assay: Induction of apoptosis in human OVCAR-3 cells assessed as upregulation of PARP cleavage incubated for 24 hrs by Western blot analysis; type: functional, cell-based
OVCAR-3 [16] = assay: Induction of apoptosis in human OVCAR-3 cells assessed as necrotic cells at 2 uM incubated for 24 hrs by Annexin V-FITC/PI staining based flow cytometry analysis (reference value: 0.87%); type: functional
[17] = Acute toxicity in ICR mouse assessed as pathological changes in liver at 1000 to 2500 mg/kg, po administered once for 14 days by H and E staining analysis; type: organism-based; conditions: in vivo, 336 h, dose 1000-2500 mg/kg, time 14 day
OVCAR-3 [18] = assay: Induction of cell senescence in human OVCAR-3 cells assessed as increase in beta galactosidase activity incubated for 24 hrs by staining based inverted microscopic analysis; type: functional; conditions: dose 1-2 µM
[19] = Acute toxicity in ICR mouse assessed as effect on liver weight at 1000 to 2500 mg/kg, po administered once for 14 days; type: organism-based; conditions: in vivo, 336 h, dose 1000-2500 mg/kg, time 14 day
OVCAR-3 [20] = assay: Upregulation of JUN gene expression in human OVCAR-3 cells by GSEA; type: functional, cell-based
OVCAR-3 [21] = assay: Upregulation of apoptosis-related signaling pathway gene expression in human OVCAR-3 cells by GSEA; type: functional, cell-based
[22] = Cmax in Sprague-Dawley rat at 20 mg/kg, po by LC-MS/MS analysis; type: ADME, organism-based; conditions: in vivo
[23] = C0 in Sprague-Dawley rat at 2 mg/kg, iv by LC-MS/MS analysis; type: ADME, organism-based; conditions: in vivo
[24] = Oral bioavailability in Sprague-Dawley rat at 20 mg/kg by LC-MS/MS analysis; type: ADME, organism-based; conditions: in vivo
[25] = Acute toxicity in ICR mouse assessed as pathological changes in spleen at 1000 to 2500 mg/kg, po administered once for 14 days by H and E staining analysis; type: organism-based; conditions: in vivo, 336 h, dose 1000-2500 mg/kg, time 14 day
[26] = Acute toxicity in ICR mouse assessed as animal death at 1000 to 2500 mg/kg, po administered once for 14 days; type: organism-based; conditions: in vivo, 336 h, dose 1000-2500 mg/kg, time 14 day
OVCAR-3 [27] = assay: Induction of apoptosis in human OVCAR-3 cells assessed as late apoptotic cells at 2 uM incubated for 24 hrs by Annexin V-FITC/PI staining based flow cytometry analysis (reference value: 2.67%); type: functional
[28] = Clearance in Sprague-Dawley rat at 2 mg/kg, iv by LC-MS/MS analysis; type: ADME, organism-based; conditions: in vivo
OVCAR-3 [29] = assay: Induction of cell cycle arrest in human OVCAR-3 cells assessed as accumulation of cells at G2 phase at 2 uM incubated for 24 hrs by flow cytometry analysis (reference value: 21.77%); type: functional
OVCAR-3 [30] = assay: Induction of apoptosis in human OVCAR-3 cells assessed as viable cells at 1 uM incubated for 24 hrs by Annexin V-FITC/PI staining based flow cytometry analysis (reference value: 95.2%); type: functional; conditions: read-out: Activity
OVCAR-3 [31] = assay: Upregulation of JUNB gene expression in human OVCAR-3 cells by GSEA; type: functional, cell-based
OVCAR-3 [32] = assay: Induction of apoptosis in human OVCAR-3 cells assessed as necrotic cells at 1 uM incubated for 24 hrs by Annexin V-FITC/PI staining based flow cytometry analysis (reference value: 0.87%); type: functional
[33] = Acute toxicity in ICR mouse assessed as effect on lung weight at 1000 to 2500 mg/kg, po administered once for 14 days; type: organism-based; conditions: in vivo, 336 h, dose 1000-2500 mg/kg, time 14 day
OVCAR-3 [34] = assay: Induction of cell cycle arrest in human OVCAR-3 cells assessed as inhibition of RB phosphorylation level incubated for 24 hrs by Western blot analysis; type: functional, cell-based
[35] = AUC (0 to infinity) in Sprague-Dawley rat at 2 mg/kg, iv by LC-MS/MS analysis; type: ADME, organism-based; conditions: in vivo
[36] = Antiproliferative activity against Palbociclib-resistance human MCF7 cells assessed as cell growth inhibition; type: functional, cell-based, Palbociclib-resistant MCF7 cell
[37] = Acute toxicity in ICR mouse assessed as effect on kidney weight at 1000 to 2500 mg/kg, po administered once for 14 days; type: organism-based; conditions: in vivo, 336 h, dose 1000-2500 mg/kg, time 14 day
CDK6/cyclin D3 = CDK6/cyclin D3 (Homo sapiens, UniProt Q00534); assay: Inhibition of CDK6/Cyclin D3 (unknown origin) pre-incubated for 10 mins followed by ATP/substrate addition and measured after 120 mins by ADP-Glo assay; type: protein-complex assay
Sequence of CDK6/cyclin D3 (P30281 whole entry): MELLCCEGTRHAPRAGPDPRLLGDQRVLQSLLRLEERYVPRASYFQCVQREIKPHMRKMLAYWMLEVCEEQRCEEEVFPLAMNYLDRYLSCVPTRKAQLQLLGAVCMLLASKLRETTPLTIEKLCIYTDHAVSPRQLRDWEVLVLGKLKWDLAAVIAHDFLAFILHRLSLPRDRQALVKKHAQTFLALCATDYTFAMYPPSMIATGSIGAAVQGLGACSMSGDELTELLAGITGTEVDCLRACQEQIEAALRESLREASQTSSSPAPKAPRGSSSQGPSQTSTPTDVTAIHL
Sequence of CDK6/cyclin D3 (Q00534 whole entry): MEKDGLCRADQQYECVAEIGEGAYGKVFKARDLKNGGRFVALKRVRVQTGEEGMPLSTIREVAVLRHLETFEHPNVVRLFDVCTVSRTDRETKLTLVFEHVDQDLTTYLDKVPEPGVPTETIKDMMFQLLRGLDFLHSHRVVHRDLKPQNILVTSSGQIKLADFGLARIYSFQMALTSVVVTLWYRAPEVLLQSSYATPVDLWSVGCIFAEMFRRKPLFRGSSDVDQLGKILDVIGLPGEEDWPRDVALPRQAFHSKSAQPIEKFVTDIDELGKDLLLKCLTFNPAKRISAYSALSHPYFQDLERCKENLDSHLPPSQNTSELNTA

OVCAR-3 [38] = assay: Inhibition of colony formation in CCNE1-amplified human OVCAR-3 incubated for 2 weeks by crystal violet staining based inverted microscopic analysis; type: functional, cell-based; conditions: dose 1-4 µM
OVCAR-3 [39] = assay: Upregulation of Bcl2l1gene expression in human OVCAR-3 cells by GSEA; type: functional, cell-based

Q: For `CCC(C)n1cc(-c2nc(NC3CCN(S(=O)(=O)C4CC4)CC3)ncc2F)cc(F)c1=O` (stereo not given), which Activity (OVCAR-3 [1]) is on record?
A: Dose-dependent-effect

Q: And the Activity (OVCAR-3 [2])?
A: Active

Q: What about the Activity (OVCAR-3 [3]) of the same compound?
A: 2.65%

Q: What about the Activity (OVCAR-3 [4]) of the same compound?
A: 94.69%

Q: What about the MRT inf [5] of the same compound?
A: 49.2 min

Q: What about the Activity (OVCAR-3 [6]) of the same compound?
A: Dose-dependent-effect

Q: And the Activity (OVCAR-3 [7])?
A: 4.3%

Q: What about the Activity [8] of the same compound?
A: Non-toxic

Q: What about the Activity (OVCAR-3 [9]) of the same compound?
A: Active

Q: What about the Activity (OVCAR-3 [10]) of the same compound?
A: Active

Q: And the Activity (OVCAR-3 [11])?
A: Dose-dependent-effect

Q: What about the Activity (OVCAR-3 [12]) of the same compound?
A: Active

Q: What about the AUC(0-inf) [13] of the same compound?
A: 11800 ng·h/mL

Q: What about the IC50 [14] of the same compound?
A: 0.9 nM

Q: What about the Activity (OVCAR-3 [15]) of the same compound?
A: Dose-dependent-effect

Q: What about the Activity (OVCAR-3 [16]) of the same compound?
A: 3.74%

Q: What about the Activity [17] of the same compound?
A: Non-toxic

Q: What about the Activity (OVCAR-3 [18]) of the same compound?
A: Dose-dependent-effect

Q: And the Activity [19]?
A: Non-toxic

Q: And the Activity (OVCAR-3 [20])?
A: Active

Q: And the Activity (OVCAR-3 [21])?
A: Active

Q: What about the Cmax [22] of the same compound?
A: 2130 ng/mL

Q: And the C0 [23]?
A: 1670 ng/mL

Q: And the bioavailability [24]?
A: 79.5%

Q: And the Activity [25]?
A: Non-toxic

Q: What about the Activity [26] of the same compound?
A: Non-toxic

Q: And the Activity (OVCAR-3 [27])?
A: 13.2%

Q: What about the clearance [28] of the same compound?
A: 28.3 mL/min/kg

Q: And the Activity (OVCAR-3 [29])?
A: 2.09%

Q: And the viability at 1 µM (OVCAR-3 [30])?
A: 84.6%

Q: And the Activity (OVCAR-3 [31])?
A: Active

Q: What about the Activity (OVCAR-3 [32]) of the same compound?
A: 5.01%

Q: And the Activity [33]?
A: Non-toxic

Q: And the Activity (OVCAR-3 [34])?
A: Active

Q: And the AUC(0-inf) [35]?
A: 1480 ng·h/mL

Q: What about the IC50 [36] of the same compound?
A: 954 nM

Q: And the Activity [37]?
A: Non-toxic

Q: What about the IC50 (CDK6/cyclin D3) of the same compound?
A: 171 nM

Q: What about the inhibition (OVCAR-3 [38]) of the same compound?
A: Dose-dependent-effect

Q: And the Activity (OVCAR-3 [39])?
A: Active
